The source of these data is PMC12348798, “Synthesis and Molecular Modeling of Antioxidant and Anti-Inflammatory Five-Membered Heterocycle–Cinnamic Acid Hybrids” (Molecules, 2025).

Assay [1] can be described thus: Interaction with the stable free radical DPPH (reducing activity). The procedure:
Firstly, the synthesized derivatives were evaluated for their ability to interact with the stable free radical 2,2-diphenyl-1-picrylhydrazyl (DPPH) at a concentration of 100 μM after 20 and 60 min (Table 2). DPPH is a valuable tool for studying antioxidant activity. Its reactivity with lipophilic compounds is not solely determined by their lipophilicity. The specific chemical structure of the antioxidant, the solvent used, and other factors can all influence the interaction with DPPH. However, lipophilic compounds tend to be well dissolved in organic solvents reacting with DPPH. Based on previous findings, the antioxidant activity is related with lipophilicity.
(§1) A 10 mM stock solution of the synthesized compounds was prepared in DMSO for the vitro assays. Serial dilutions were carried out to determine the IC50 values. Each experiment was conducted six times, with standard deviations remaining below 10% of the mean.
An in vitro study was conducted as previously described by our group. Free radical scavenging activity was evaluated by measuring absorbance at 517 nm after 20 and 60 min at room temperature.

Assay [2] in a line: Inhibition of AAPH-induced linoleic acid peroxidation. As for the experimental part:
In the lipid peroxidation assay, 2,2′-azobis(2-methylpropionamidine)dihydrochloride (AAPH) was used as a peroxyl radical inducer, and sodium linoleate as a substrate. The formation of 13-hydroperoxy-linoleic acid from linoleic acid was monitored by measuring absorbance at 234 nm. Trolox was used as a reference compound.
as §1
AAPH was employed as an inducer of alkyl peroxyl radicals. In this experiment, the compounds’ ability to inhibit the oxidation of linoleic acid by alkyl peroxyl radicals was assessed by monitoring the change in absorbance at 234 nm due to the formation of 13-hydroperoxy-linoleic acid. Trolox was used as the reference compound [59, 68].

The target of assay [3] is T1, soybean lipoxygenase (Glycine max, UniProt P08170).
T1 construct: purchased Sigma Aldrich, Merck KGaA, Darmstadt, Germany
T1 sequence (P08170 1-839): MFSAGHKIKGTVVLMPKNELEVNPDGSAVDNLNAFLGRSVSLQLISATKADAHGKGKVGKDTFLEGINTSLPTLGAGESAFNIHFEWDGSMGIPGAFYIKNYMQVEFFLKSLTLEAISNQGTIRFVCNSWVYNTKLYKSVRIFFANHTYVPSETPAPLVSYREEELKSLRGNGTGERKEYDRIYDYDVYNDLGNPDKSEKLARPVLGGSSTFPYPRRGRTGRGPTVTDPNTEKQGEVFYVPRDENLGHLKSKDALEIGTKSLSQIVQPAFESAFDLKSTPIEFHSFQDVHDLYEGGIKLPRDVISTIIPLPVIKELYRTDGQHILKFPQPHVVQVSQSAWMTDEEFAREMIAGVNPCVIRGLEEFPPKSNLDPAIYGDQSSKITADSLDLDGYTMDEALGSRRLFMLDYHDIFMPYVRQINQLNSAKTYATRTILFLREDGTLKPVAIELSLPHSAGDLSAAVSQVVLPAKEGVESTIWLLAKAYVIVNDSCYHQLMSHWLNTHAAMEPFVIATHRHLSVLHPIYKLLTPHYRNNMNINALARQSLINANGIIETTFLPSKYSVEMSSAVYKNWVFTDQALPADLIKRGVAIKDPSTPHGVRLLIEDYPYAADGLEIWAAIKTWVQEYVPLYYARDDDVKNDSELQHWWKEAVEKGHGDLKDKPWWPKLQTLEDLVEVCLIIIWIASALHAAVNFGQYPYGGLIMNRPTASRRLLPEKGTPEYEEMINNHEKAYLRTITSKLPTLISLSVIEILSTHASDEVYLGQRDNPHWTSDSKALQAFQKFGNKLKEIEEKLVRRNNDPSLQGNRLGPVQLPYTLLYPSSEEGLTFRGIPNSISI
Briefly: Inhibition of soybean lipoxygenase. The class given is biochemical. Conditions: for IC50: soybean lipoxygenase, sodium linoleate substrate, read-out: LOX IC50; for inhibition at 100 µM: read-out: LOX % Inhibition 100 μM. As for the experimental part:
Lipoxygenase (LOX) is responsible for the formation of leukotrienes, important inflammatory mediators. Due to its important role, it is considered as a therapeutic target for inflammatory diseases. Soybean lipoxygenase (LOX), a plant-derived enzyme, has been extensively utilized as a model for investigating the functional and structural properties of the lipoxygenase family, due to its significant homology with human 5-LOX [35, 61].
A 10 mM stock solution of the synthesized compounds was prepared in DMSO for the vitro assays. Serial dilutions were carried out to determine the IC50 values.
Sodium linoleate (0.1 mM), 0.2 mL of soybean lipoxygenase solution (1/9 × 10^−4 w/v in saline), and 10 μL of the test compound stock solution (10 mM in DMSO) were incubated at room temperature. Absorbance was recorded at 234 nm while monitoring the formation of 13-hydroperoxy-linoleic acid. […] To determine IC50 values, various concentrations of the test compounds were applied.

Assay [4] deals with Valosine-containing protein. Also on record: method as in PMID 23245311. The settings on record: from the literature; cited from earlier work.

As for `O=C(C=Cc1ccccc1)NNC(=S)Nc1ccccc1` [Compound 3a, 2-Cinnamoyl-N-phenylhydrazine-1-carbothioamide], in assay [1], the “RA % 100 μM 20 min” value amounted to 61% and the “RA % 100 μM 60 min” value was found to be 92%. Moreover, the “AAPH % Inhibition 100 μM” value in assay [2] came out at 67%. Also, the IC50 in assay [3] was found to be 8.5 µM.

Consider `O=C(/C=C/c1ccc(Cl)cc1)NNC(=S)Nc1ccccc1` [Compound 3b, (E)-2-(3-(4-Chlorophenyl)acryloyl)-N-phenylhydrazine-1-carbothioamide], for which, in assay [1], the “RA % 100 μM 20 min” value was found to be 90% and the “RA % 100 μM 60 min” value came to 83%. Also, the “AAPH % Inhibition 100 μM” value in assay [2] was found to be 37%. Besides, the inhibition at 100 µM in assay [3] is 49%.

On to `O=C(/C=C/c1ccc(F)cc1)NNC(=S)Nc1ccccc1` [Compound 3c, (E)-2-(3-(4-Fluorophenyl)acryloyl)-N-phenylhydrazine-1-carbothioamide], for which, in assay [1], the “RA % 100 μM 20 min” value is reported as 90% and the “RA % 100 μM 60 min” value stood at 91%. In assay [2], the “AAPH % Inhibition 100 μM” value was 12%. Further, in assay [3], the inhibition at 100 µM was determined as 45%.

Consider `O=C(/C=C/c1ccc(Br)cc1)NNC(=S)Nc1ccccc1` [Compound 3d, (E)-2-(3-(4-Bromophenyl)acryloyl)-N-phenylhydrazine-1-carbothioamide], for which, in assay [1], the “RA % 100 μM 20 min” value was determined as 29% and the “RA % 100 μM 60 min” value amounted to 97%. In addition, in assay [2], the “AAPH % Inhibition 100 μM” value came to 33%. Moreover, in assay [3], the IC50 was 8 µM.

Take `CC(=O)Oc1ccc(/C=C/C(=O)NNC(=S)Nc2ccccc2)cc1` [Compound 3e, (E)-4-(3-Oxo-3-(2-(phenylcarbamothioyl)hydrazineyl)prop-1-en-1-yl)phenyl acetate]: in assay [1], the “RA % 100 μM 20 min” value is on record as 83% and the “RA % 100 μM 60 min” value is reported as 21%. The “AAPH % Inhibition 100 μM” value in assay [2] came out at 47%. The IC50 in assay [3] was 9.75 µM.

Turning to `O=C(/C=C/c1ccc2c(c1)OCO2)NNC(=S)Nc1ccccc1` [Compound 3f, (E)-2-(3-(Benzo[d][1,3]dioxol-5-yl)acryloyl)-N-phenylhydrazine-1-carbothioamide], in assay [1], the “RA % 100 μM 20 min” value is listed as 70% and the “RA % 100 μM 60 min” value worked out at 89%. The “AAPH % Inhibition 100 μM” value in assay [2] is 58%. In assay [3], the IC50 came to 35 µM.

With `O=C(/C=C/c1ccc(OCc2ccc(Br)cc2)cc1)NNC(=S)Nc1ccccc1` [Compound 3g, (E)-2-(3-(4-((4-Bromobenzyl)oxy)phenyl)acryloyl)-N-phenylhydrazine-1-carbothioamide], in assay [1], the “RA % 100 μM 20 min” value came out at 98% and the “RA % 100 μM 60 min” value is on record as 87%. In assay [2], the “AAPH % Inhibition 100 μM” value was 91%. The 50% inhibitory concentration (IC50) in assay [3] is 10 µM.

For `Sc1nnc(/C=C/c2ccccc2)n1-c1ccccc1` [Compound 4a, (E)-4-Phenyl-5-styryl-4H-1,2,4-triazole-3-thiol], in assay [1], the “RA % 100 μM 20 min” value was determined as 74% and the “RA % 100 μM 60 min” value was 93%. Moreover, the “AAPH % Inhibition 100 μM” value in assay [2] stood at 26%. Moreover, the IC50 in assay [3] was found to be 7.5 µM.

In the case of `Sc1nnc(/C=C/c2ccc(Cl)cc2)n1-c1ccccc1` [Compound 4b, (E)-5-(4-Chlorostyryl)-4-phenyl-4H-1,2,4-triazole-3-thiol], in assay [1], the “RA % 100 μM 20 min” value is 33% and the “RA % 100 μM 60 min” value came out at 88%. Moreover, the “AAPH % Inhibition 100 μM” value in assay [2] amounted to 34%. Besides, in assay [3], the IC50 is 4.5 µM.

Take `Fc1ccc(/C=C/c2nnc(S)n2-c2ccccc2)cc1` [Compound 4c, (E)-5-(4-Fluorostyryl)-4-phenyl-4H-1,2,4-triazole-3-thiol]: in assay [1], the “RA % 100 μM 20 min” value amounted to 82% and the “RA % 100 μM 60 min” value turned out to be 93%. For the same molecule, in assay [2], the “AAPH % Inhibition 100 μM” value is listed as 94%. Also, in assay [3], the inhibition at 100 µM turned out to be 35%.

Take `Sc1nnc(/C=C/c2ccc(Br)cc2)n1-c1ccccc1` [Compound 4d, (E)-5-(4-Bromostyryl)-4-phenyl-4H-1,2,4-triazole-3-thiol]: in assay [1], the “RA % 100 μM 20 min” value was determined as 68% and the “RA % 100 μM 60 min” value was 57%. Besides, the “AAPH % Inhibition 100 μM” value in assay [2] is 20%. Moreover, the IC50 in assay [3] stood at 97.5 µM. For the same molecule, the Valosine-containing protein inhibition entry in assay [4] is on record as “allosteric Valosine-containing protein inhibitor”.

In the case of `CC(=O)Oc1ccc(/C=C/c2nnc(S)n2-c2ccccc2)cc1` [Compound 4e, (E)-4-(2-(5-Mercapto-4-phenyl-4H-1,2,4-triazol-3-yl)vinyl)phenyl acetate], in assay [1], the “RA % 100 μM 20 min” value amounted to 96% and the “RA % 100 μM 60 min” value was found to be 93%. Also, the “AAPH % Inhibition 100 μM” value in assay [2] was 87%. In assay [3], the 50% inhibitory concentration (IC50) amounted to 5.5 µM.

Consider `Sc1nnc(/C=C/c2ccc3c(c2)OCO3)n1-c1ccccc1` [Compound 4f, (E)-5-(2-(Benzo[d][1,3]dioxol-5-yl)vinyl)-4-phenyl-4H-1,2,4-triazole-3-thiol], for which, in assay [1], the “RA % 100 μM 20 min” value is 87% and the “RA % 100 μM 60 min” value turned out to be 76%. Also, in assay [2], the “AAPH % Inhibition 100 μM” value is 71%. Besides, in assay [3], the IC50 is 7.5 µM.

For `Sc1nnc(/C=C/c2ccc(OCc3ccc(Br)cc3)cc2)n1-c1ccccc1` [Compound 4g, (E)-5-(4-((4-Bromobenzyl)oxy)styryl)-4-phenyl-4H-1,2,4-triazole-3-thiol], in assay [1], the “RA % 100 μM 20 min” value is on record as 97% and the “RA % 100 μM 60 min” value is on record as 92%. In assay [2], the “AAPH % Inhibition 100 μM” value amounted to 50%. In assay [3], the IC50 is 4.5 µM.

In the case of `C(=C\c1nnc(Nc2ccccc2)o1)/c1ccccc1` [Compound 5a, (E)-N-Phenyl-5-styryl-1,3,4-oxadiazol-2-amine], the “RA % 100 μM 60 min” value in assay [1] worked out at 7%. For the same molecule, the “AAPH % Inhibition 100 μM” value in assay [2] is listed as 17%. Also, the IC50 in assay [3] is 32.5 µM.

Consider `Clc1ccc(/C=C/c2nnc(Nc3ccccc3)o2)cc1` [Compound 5b, (E)-5-(4-Chlorostyryl)-N-phenyl-1,3,4-oxadiazol-2-amine], for which, in assay [1], the “RA % 100 μM 20 min” value turned out to be 65% and the “RA % 100 μM 60 min” value is 72%. In assay [3], the 50% inhibitory concentration (IC50) was 18 µM.

For the molecule `Fc1ccc(/C=C/c2nnc(Nc3ccccc3)o2)cc1` [Compound 5c, (E)-5-(4-Fluorostyryl)-N-phenyl-1,3,4-oxadiazol-2-amine], in assay [1], the “RA % 100 μM 20 min” value is given as 92% and the “RA % 100 μM 60 min” value was found to be 82%. Further, the “AAPH % Inhibition 100 μM” value in assay [2] is reported as 63%. Further, the IC50 in assay [3] was 17 µM.

Turning to `C(=C\c1nnc(Nc2ccccc2)s1)/c1ccccc1` [Compound 6a, (E)-N-Phenyl-5-styryl-1,3,4-thiadiazol-2-amine], in assay [1], the “RA % 100 μM 20 min” value is 98% and the “RA % 100 μM 60 min” value came out at 96%. Also, the “AAPH % Inhibition 100 μM” value in assay [2] was determined as 60%. Moreover, in assay [3], the IC50 was 5 µM.

As to `CC(Cc1ccc(O)c(O)c1)C(C)Cc1ccc(O)c(O)c1` (centres unmarked) [NDGA, Nordihydroguaiaretic acid, reference compound], in assay [1], the “RA % 100 μM 20 min” value came to 87% and the “RA % 100 μM 60 min” value is on record as 93%.

For the molecule `Cc1c(C)c2c(c(C)c1O)CCC(C)(C(=O)O)O2` (centres unmarked) [Trolox, 6-hydroxy-2,5,7,8-tetramethyl-chroman2-carboxylic acid, reference compound], in assay [2], the “AAPH % Inhibition 100 μM” value amounted to 92%.

The IC50 is the concentration needed to halve the response being measured. As usually defined, the inhibition is the percentage by which the read-out fell short of the control.
